Values joined by “and” are separate entries in the source; they are usually repeats but may differ in a detail not shown here. Identical values can stand only once. “Also recorded” adds a separate entry of the source.
How the values were obtained:
[1] = target: T1, SHP-1 (Protein-Tyrosine Phosphatase 1C) (Homo sapiens, UniProt P29350); assay: PhosphataseProfiler screen: SHP-1; assay type: biochemical; conditions: replicates
T1 construct: purchased Eurofins Pharma Discovery Services UK
Description: Compound DJ001 was evaluated in a PhosphataseProfiler™ screen at 10 μM and 1 μM (2.7 μg/mL and 0.27 μg/mL) concentrations at Eurofins Pharma Discovery Services UK (Study number UK022-0004033) against a panel of 21 Phosphatases. In each experiment, the respective reference antagonist/agonist was tested directly with DJ001 and the data were compared with historical values determined at Eurofins. DJ001 compound inhibition was calculated as percentage inhibition of the enzymatic activity compared with control.

[2] = test system: CDC42-GTP in BM lin− cells; assay: G-LISA activation assay: CDC42-GTP; assay type: cell-based, mouse; conditions: for CDC42-GTP level (G-LISA): Supplementary Figure 7b (right panel)
Description: (§1) The RAC1-GTP, RHOA-GTP, and CDC42-GTP activation levels in BM lin^− cells were measured using a colorimetric-based RAC1-, RHOA-, and CDC42 G-LISA Activation Assay Kit (Cytoskeleton, Inc.). BM cells from femurs and tibias were isolated from 12-week-old Ptprs^+/+ and Ptprs^−/− mice. Cells were then depleted of lineage-committed cells with Direct Lineage Cell Depletion Kit (Miltenyi Biotec, #130-110-470; 1:5). The BM lin^− cell fraction was then serum starved in Iscove’s modified Dulbecco’s medium (IMDM) and treated with either vehicle (equal amount of DMSO) or 1 μg/mL DJ001 for 10 min at 37 °C. After treatment, cells were washed with ice-cold PBS and then placed in lysis buffer supplemented with protease inhibitor. Lysate concentrations were measured by Pierce^TM BCA Protein Assay Kit (ThermoFisher Scientific). G-LISA was performed according to the manufacturer’s instructions. Briefly, 12.5 μg of lysates was added to a GTP-binding protein pre-coated plate and active RAC1-GTP, RHOA-GTP, or CDC42-GTP levels were measured at 490 nm using a PowerWave XS2 microplate reader (BioTek).

[3] = test system: BM KSL cells / BM lin− cells; assay: Gene expression of cell cycle regulatory genes (qPCR); assay type: cell-based, mouse
Description: Rac1 CDS-targeting- and Bcl2l1 CDS-targeting shRNA in lentiviral plasmid (TRCN0000310888 and TRCN0000004685) and control shRNA (SHC216V) were purchased from Sigma Aldrich. For viral production, 293T cells were transfected with lentiviral gag/pol and VSV-G (courtesy of Donald Kohn, UCLA) and the lentiviral plasmids, at a ratio of 2.2: 1.2: 3.3 (in [μg], gag/pol:VSVG:Plasmid) using Lipofectamine 3000 and P300 Enhancer. Viral particles were collected after 24 h and 48 h. One milliliter of viral supernatant was used to infect 0.75 × 10^6 BM lin^− cells. Infected cells were collected the next day and irradiated with 300 cGy followed by treatment with or without 1 μg/mL DJ001, prior to CFC assay.
(§2) For all studies, RNA was isolated using the Qiagen RNeasy micro kit (Qiagen). RNA was reverse transcribed using the High-Capacity cDNA Reverse Transcription Kit (ThermoFisher Scientific) and was then used for quantitative PCR with SYBR Select Master Mix (Life Technologies). Values were normalized to housekeeping gene Gapdh/GAPDH and given as ΔΔCt values normalized to media-treated, non-irradiated BM KSL cells (2(−ΔΔC(T)) method)[67].

[4] = test system: human BM CD34+ cells; assay: Recovery of CD34+CD38− cells from 300 cGy-irradiated human BM CD34+ cells; assay type: cell-based; conditions: 36 h, 5 µg/mL DJ001
[5] = test system: human CD34+CD38− cells; assay: BCL2L1 and MCL-1 gene expression in irradiated human CD34+CD38− cells (qPCR); assay type: cell-based
Source text: as §2

[6] = test system: progeny of irradiated human BM CD34+ cells in NSG mice; assay: Human BM transplantation assay in NSG mice; assay type: in vivo
Description: Human BM mononuclear cells were purchased from AllCells. Cryopreserved human BM cells were recovered in IMDM + 10% FBS + 1% penicillin–streptomycin and then positively selected for CD34^+ stem/progenitor cells by using CD34 MicroBead Kit (Miltenyi Biotec, #130-046-702, 1:5). CD34^+ cells were cultured in human TSF media (IMDM, 10%FBS, 1% pen-strep, 20 ng/mL recombinant human TPO, 125 ng/mL recombinant human SCF, 50 ng/mL recombinant human Flt3 ligand (R&D Systems). The progeny of 2 × 10^5 irradiated, human BM CD34^+ cultured for 36 h and treated with DJ001 at 5 μg/mL, were transplanted via tail vein injection into 10–12-week-old NSG mice preconditioned with 275 cGy TBI. Multilineage donor hematopoietic cell engraftment was monitored in the PB and BM by flow cytometry. The PB or BM cells were stained with BV605-conjugated anti-mouse CD45 (BioLegend, #103139, 1:100), AF647-conjugated anti-human CD34 (BioLegend, #343618, 1:100), FITC-conjugated anti-human CD33 (BD Biosciences, #555626, 1:100), V450-conjugated anti-human CD45 (BD Biosciences, #560368, 1:100), APC-conjugated anti-human CD3 (BD Biosciences, #555342, 1:100), and APC-Cy7-conjugated anti-human CD19 (BD Biosciences, #557791, 1:100) antibodies.

[7] = test system: RAC1-GTP in BM lin− cells; assay: G-LISA activation assay: RAC1-GTP; assay type: cell-based, mouse; conditions: for RAC1-GTP level (G-LISA): Supplementary Figure 7c
Description: as §1

[8] = KSL cells, 36 h following 300 cGy, normalized to Gapdh and media
[9] = irradiated human CD34+CD38− cells, qPCR, replicates
[10] = progeny of irradiated human BM CD34+ cells, individual mice, in % (unit assumed)

T1 sequence (P29350 whole entry, species assumed): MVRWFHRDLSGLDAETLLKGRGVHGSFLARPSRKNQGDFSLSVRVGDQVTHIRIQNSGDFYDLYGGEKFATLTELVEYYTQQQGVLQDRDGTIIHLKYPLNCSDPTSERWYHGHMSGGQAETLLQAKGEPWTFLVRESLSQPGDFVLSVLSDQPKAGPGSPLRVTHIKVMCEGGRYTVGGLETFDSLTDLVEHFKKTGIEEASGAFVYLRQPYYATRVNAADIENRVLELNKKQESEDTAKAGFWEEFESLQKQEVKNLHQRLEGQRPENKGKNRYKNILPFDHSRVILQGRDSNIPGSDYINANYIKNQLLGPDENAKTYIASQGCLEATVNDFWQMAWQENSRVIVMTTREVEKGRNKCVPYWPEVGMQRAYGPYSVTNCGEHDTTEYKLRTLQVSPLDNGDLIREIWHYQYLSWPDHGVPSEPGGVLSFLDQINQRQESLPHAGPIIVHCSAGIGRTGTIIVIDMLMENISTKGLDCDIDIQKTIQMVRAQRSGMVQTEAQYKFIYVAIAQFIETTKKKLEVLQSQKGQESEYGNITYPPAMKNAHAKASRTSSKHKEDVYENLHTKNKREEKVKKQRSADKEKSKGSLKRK

With `O=C(/C=C\Nc1cccc([N+](=O)[O-])c1)c1ccccc1` [DJ001, (Z)-3-((3-nitrophenyl)amino)-1-phenylprop-2-en-1-one] the “Supplementary Figure 1: SHP-1 activity” value ([1]; 2.7 μg/mL DJ001) was 81 and 82 and 85, the “Supplementary Figure 1: SHP-1 activity” value ([1]; 0.27 g/mL DJ001) was 99 (2×) and 102 and the “activation of CDC42” value ([2]; BM lin− cells, 1 μg/mL DJ001, 10 min) was “did not alter the activation”. For the same molecule, the “CDC42-GTP level (G-LISA)” value ([2]; Ptprs+/+ cells) was 0.2383 and 0.2517 and 0.2371, the “CDC42-GTP level (G-LISA)” value ([2]; Ptprs-/- cells) was 0.1634 and 0.1869 and 0.1735 and the “DJ001-mediated transcription of Cdk2 and Cyclin E with Rac1-shRNA” value ([3]; BM KSL cells transduced with Rac1-shRNA) was “blocked DJ001-mediated transcription of Cdk2 and Cyclin E”. For the same molecule, the “Fold changes (2^−ΔΔCt) of Cyclin E expression (Figure 4c right panel)” value ([3]; BM lin− cells, 48 h after 300 cGy, shCtrl) was 1.96 and 1.7 and 1.9, the “Fold changes (2^−ΔΔCt) of Cdk2 expression (Figure 4c left panel)” value ([3]; BM lin− cells, 48 h after 300 cGy, shRac1) was 0.56 and 0.39 and 0.71 and 0.44 and the “Fold changes (2^−ΔΔCt) of Cdk2 expression” value [3, 8] was 1.9 and 2.08 and 1.8. For the same molecule, the “Fold changes (2^−ΔΔCt) of Cdk4 expression” value [3, 8] was 1.32 and 1.05 and 1, the “Fold changes (2^−ΔΔCt) of Cdk6 expression” value [3, 8] was 1.09 and 0.91 and 0.98 and the “Fold changes (2^−ΔΔCt) of Cdkn1A expression” value [3, 8] was 1.43 and 1.41 and 1.14. For the same molecule, the “Fold changes (2^−ΔΔCt) of Cdkn1B expression” value [3, 8] was 1.11 and 1.07 and 0.74, the “Fold changes (2^−ΔΔCt) of Cyclin D1 expression” value [3, 8] was 1.54 and 1.21 and 0.97 and the “Fold changes (2^−ΔΔCt) of Cyclin D2 expression” value [3, 8] was 1.04 and 1.14 and 0.74. For the same molecule, the “Fold changes (2^−ΔΔCt) of Cyclin E expression” value [3, 8] was 2.54 and 2.89 and 2.07, the “expression of Cdk4, Cdk6, Cdkn1a, Cdkn1b, Cyclin D1, Cyclin D2” value ([3]; irradiated BM KSL cells) was “did not alter the expression” and the “expression of Cdk2 and Cyclin E” value ([3]; irradiated KSL cells) was “significantly increased the expression”. The “recovery of viable human BM CD34+CD38− cells following irradiation” value [4] was “increased the recovery”, the “expression of BCL2L1 and MCL-1” value ([5]; irradiated human CD34+ cells, 12 h after 300 cGy) was “increased the expression” and the “Figure 5d: gene expression, BCL-XL” value [5, 9] was 7.91 and 7.15 and 7.38. The “Figure 5d: gene expression, MCL1” value [5, 9] was 3.75 and 3.41 and 4.98, the “engraftment of human CD45+ cells, CD19+ B cells, CD33+ myeloid cells, and CD3+ T cells vs control” value ([6]; NSG mice, 12 weeks post transplant) was “several – fold increased multilineage engraftment; also recorded: substantially increased engraftment” and the “Figure 5g (center left panel): human engraftment in NSG mice” value [6, 10] was 0.66 and 2.13 and 0.13 and 1.76 and 1.28 and 0.22 and 0.24 and 0.04 and 0.73 and 2.53 and 0.35. For the same molecule, the “Figure 5g (center panel): human engraftment in NSG mice” value [6, 10] was 2.25 and 0.8 and 0.17 and 0.56 and 4.4 and 0.31 and 5 and 1.4 and 1.23 and 5.34 and 6.53, the “Figure 5g (center right panel): human engraftment in NSG mice” value [6, 10] was 0.24 and 0.34 and 1.91 and 0.16 and 0.67 and 0.92 and 0.14 and 0.94 and 0.48 and 4.07 and 1.41 and 1.1 and the “Figure 5g (left panel): human engraftment in NSG mice” value [6, 10] was 4.16 and 2.8 and 0.36 and 1.45 and 9.56 and 0.9 and 12.2 and 3.82 and 4.68 and 14.9 and 12.5. The “Figure 5g (right panel): human engraftment in NSG mice” value [6, 10] was 0.25 and 1.48 and 0.96 and 0.1 and 0.49 and 1.86 and 0.23 and 1.47 and 1.13 and 2 and 5.49 and 5.38.

With `O=C(/C=C\Nc1cc(F)cc(F)c1)c1ccccc1` [DJ009, (Z)-3-((3,5-difluorophenyl)amino)-1-phenylprop-2-en-1-one] the RAC1 activation ([7]; BM cells from Ptprs−/− mice, 1 μg/ml DJ001, 10 min) was “did not induce RAC1 activation”, the “RAC1-GTP level (G-LISA)” value ([7]; Ptprs+/+ cells) was 0.459 and 0.438 and 0.567 and the “RAC1-GTP level (G-LISA)” value ([7]; Ptprs-/- cells) was 0.402 and 0.353 and 0.351 and 0.292.

— article PMC6694155, “PTPσ inhibitors promote hematopoietic stem cell regeneration” (Nature Communications, 2019)
